The source of these data is ChEMBL document CHEMBL1152560, “Substituted 2-arylbenzothiazoles as kinase inhibitors: hit-to-lead optimization” (Bioorg Med Chem, 2009).

Assay [1] has as its target Tyrosine-protein kinase JAK2 (Homo sapiens) (UniProt O60674). In words: Residual activity of JAK2 at 0.1 uM by microplate scintillation counting.
Assay [2] addresses Serine/threonine-protein kinase PAK 2 (Homo sapiens) (UniProt Q13177). In words: Residual activity of PAK2 at 10 uM by microplate scintillation counting.
Assay [3] deals with Tyrosine-protein kinase BTK (Homo sapiens) (UniProt Q06187). In words: Residual activity of BTK at 10 uM by microplate scintillation counting.
Tyrosine-protein kinase BTK (Homo sapiens), sequence (Q06187 whole entry): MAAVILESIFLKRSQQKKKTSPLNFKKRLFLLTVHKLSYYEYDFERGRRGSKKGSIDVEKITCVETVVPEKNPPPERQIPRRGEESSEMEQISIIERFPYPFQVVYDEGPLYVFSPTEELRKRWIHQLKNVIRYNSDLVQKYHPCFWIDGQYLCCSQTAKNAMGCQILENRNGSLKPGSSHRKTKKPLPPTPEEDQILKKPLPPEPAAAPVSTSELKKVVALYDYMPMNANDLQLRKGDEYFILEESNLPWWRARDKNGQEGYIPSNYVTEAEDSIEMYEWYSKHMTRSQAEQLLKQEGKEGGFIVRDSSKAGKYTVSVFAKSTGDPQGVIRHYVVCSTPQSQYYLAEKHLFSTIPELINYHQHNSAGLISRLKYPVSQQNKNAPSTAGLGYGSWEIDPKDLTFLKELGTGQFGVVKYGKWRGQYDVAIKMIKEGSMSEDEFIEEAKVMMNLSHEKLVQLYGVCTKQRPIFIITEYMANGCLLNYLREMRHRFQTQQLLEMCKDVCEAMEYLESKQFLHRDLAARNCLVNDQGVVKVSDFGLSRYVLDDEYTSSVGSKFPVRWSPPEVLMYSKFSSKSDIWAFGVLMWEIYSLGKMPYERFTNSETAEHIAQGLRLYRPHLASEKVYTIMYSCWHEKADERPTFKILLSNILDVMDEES
Assay [4] addresses Protein kinase C theta type (Homo sapiens) (UniProt Q04759). In words: Residual activity of PKCtheta at 1 uM by microplate scintillation counting.
Assay [5] deals with G protein-coupled receptor kinase 6 (Homo sapiens) (UniProt P43250). In words: Residual activity of GRK6 at 0.1 uM by microplate scintillation counting.
Assay [6] has as its target Protein kinase C beta type (Homo sapiens) (UniProt P05771). The assay can be described thus: Residual activity of PKCbeta2 at 1 uM by microplate scintillation counting.
Assay [7] deals with Serine/threonine-protein kinase pim-1 (Homo sapiens) (UniProt P11309). The assay can be described thus: Residual activity of PIM1 at 10 uM by microplate scintillation counting.
Assay [8] has as its target Calcium/calmodulin-dependent protein kinase type 1D (Homo sapiens) (UniProt Q8IU85). The assay can be described thus: Residual activity of CAMK1D at 0.1 uM by microplate scintillation counting.
Assay [9] concerns the target Mitogen-activated protein kinase 10 (Homo sapiens) (UniProt P53779). In words: Residual activity of JNK3 at 0.1 uM by microplate scintillation counting.
Assay [10] deals with Insulin receptor (Homo sapiens) (UniProt P06213). The assay can be described thus: Residual activity of INSR at 0.1 uM by microplate scintillation counting.
Insulin receptor (Homo sapiens), sequence (P06213 28-758 limits assumed): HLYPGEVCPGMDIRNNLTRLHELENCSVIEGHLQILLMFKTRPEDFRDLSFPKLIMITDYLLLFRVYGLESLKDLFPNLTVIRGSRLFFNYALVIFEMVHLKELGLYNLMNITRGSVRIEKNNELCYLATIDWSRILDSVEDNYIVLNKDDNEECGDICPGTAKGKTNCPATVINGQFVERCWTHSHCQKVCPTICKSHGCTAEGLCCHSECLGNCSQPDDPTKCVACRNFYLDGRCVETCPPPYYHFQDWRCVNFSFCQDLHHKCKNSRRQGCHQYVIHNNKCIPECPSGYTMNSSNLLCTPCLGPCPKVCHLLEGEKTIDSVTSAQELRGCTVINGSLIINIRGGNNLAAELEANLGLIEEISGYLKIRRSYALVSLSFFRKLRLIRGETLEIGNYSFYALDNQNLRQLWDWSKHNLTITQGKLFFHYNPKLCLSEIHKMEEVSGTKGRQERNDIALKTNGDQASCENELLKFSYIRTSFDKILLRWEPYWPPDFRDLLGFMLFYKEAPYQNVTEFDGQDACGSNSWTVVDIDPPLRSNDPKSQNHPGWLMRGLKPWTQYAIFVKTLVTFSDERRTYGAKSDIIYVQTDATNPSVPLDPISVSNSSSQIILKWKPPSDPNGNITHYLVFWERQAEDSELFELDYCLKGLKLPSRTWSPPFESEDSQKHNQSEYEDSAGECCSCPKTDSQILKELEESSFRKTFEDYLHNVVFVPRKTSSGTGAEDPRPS
Insulin receptor (Homo sapiens), sequence (P06213 763-1382 limits assumed): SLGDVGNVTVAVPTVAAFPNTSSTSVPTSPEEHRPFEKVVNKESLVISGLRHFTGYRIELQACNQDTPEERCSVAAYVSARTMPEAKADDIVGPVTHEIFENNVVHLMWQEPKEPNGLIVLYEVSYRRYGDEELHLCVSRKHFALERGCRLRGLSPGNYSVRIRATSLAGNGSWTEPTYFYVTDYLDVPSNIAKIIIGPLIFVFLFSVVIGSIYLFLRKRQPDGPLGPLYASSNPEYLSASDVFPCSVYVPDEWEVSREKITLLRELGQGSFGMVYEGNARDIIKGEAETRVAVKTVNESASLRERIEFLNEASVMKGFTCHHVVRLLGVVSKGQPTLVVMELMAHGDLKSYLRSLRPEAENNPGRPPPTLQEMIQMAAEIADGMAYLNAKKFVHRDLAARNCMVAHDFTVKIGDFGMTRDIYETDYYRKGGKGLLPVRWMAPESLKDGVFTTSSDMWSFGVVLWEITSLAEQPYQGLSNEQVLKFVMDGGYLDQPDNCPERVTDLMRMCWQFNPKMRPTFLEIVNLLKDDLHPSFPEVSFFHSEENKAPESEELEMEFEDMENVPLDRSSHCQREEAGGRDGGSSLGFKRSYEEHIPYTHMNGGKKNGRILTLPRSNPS
Assay [11] deals with Tyrosine-protein kinase Yes (Homo sapiens) (UniProt P07947). In words: Residual activity of YES at 10 uM by microplate scintillation counting.
Assay [12] concerns the target T1, Serine/threonine-protein kinase D3 (Homo sapiens) (UniProt O94806).
T1 sequence (whole entry): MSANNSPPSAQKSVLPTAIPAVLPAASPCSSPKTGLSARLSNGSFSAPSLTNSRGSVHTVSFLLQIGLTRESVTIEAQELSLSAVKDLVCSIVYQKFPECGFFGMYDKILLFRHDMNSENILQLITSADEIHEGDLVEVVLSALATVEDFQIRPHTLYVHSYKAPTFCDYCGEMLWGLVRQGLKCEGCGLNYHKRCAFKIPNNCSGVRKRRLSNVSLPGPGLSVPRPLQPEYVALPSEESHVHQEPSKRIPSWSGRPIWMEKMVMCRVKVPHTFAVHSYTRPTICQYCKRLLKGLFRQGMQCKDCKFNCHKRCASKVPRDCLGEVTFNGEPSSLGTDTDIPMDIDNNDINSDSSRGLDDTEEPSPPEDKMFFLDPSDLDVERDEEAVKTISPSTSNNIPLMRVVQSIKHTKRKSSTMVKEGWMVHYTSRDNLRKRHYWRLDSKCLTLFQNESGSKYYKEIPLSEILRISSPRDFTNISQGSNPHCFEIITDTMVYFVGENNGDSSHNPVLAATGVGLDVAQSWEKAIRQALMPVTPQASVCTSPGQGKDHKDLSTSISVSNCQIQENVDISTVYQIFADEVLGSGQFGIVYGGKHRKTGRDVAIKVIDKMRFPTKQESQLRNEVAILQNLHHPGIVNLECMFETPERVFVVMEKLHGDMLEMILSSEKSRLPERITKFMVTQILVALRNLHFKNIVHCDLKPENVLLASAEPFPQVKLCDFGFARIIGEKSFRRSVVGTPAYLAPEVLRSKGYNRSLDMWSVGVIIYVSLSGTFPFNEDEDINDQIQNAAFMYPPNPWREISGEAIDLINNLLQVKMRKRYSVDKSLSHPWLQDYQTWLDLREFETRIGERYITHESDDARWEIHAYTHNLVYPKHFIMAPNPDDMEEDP
The assay can be described thus: Residual activity of PKCnu at 1 uM by microplate scintillation counting.

In assay [13] the target is Tyrosine-protein kinase Lyn (Homo sapiens) (UniProt P07948). The assay can be described thus: Residual activity of LYN at 10 uM by microplate scintillation counting.
Tyrosine-protein kinase Lyn (Homo sapiens), sequence (P07948 2-512 limits assumed): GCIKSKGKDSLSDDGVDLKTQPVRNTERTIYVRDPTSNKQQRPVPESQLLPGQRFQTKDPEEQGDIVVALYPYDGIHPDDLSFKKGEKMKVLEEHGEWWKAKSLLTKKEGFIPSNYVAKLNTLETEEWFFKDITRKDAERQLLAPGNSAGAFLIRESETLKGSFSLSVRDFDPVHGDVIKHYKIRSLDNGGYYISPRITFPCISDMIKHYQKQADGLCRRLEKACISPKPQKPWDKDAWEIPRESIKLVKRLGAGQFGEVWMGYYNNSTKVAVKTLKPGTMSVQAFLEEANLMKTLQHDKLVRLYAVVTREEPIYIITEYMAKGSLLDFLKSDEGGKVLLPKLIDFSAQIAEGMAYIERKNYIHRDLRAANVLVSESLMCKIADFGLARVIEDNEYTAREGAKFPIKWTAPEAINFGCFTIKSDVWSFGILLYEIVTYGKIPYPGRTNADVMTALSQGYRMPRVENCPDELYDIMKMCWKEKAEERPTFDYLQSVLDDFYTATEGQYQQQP
Assay [14] has as its target Serine/threonine-protein kinase 24 (Homo sapiens) (UniProt Q9Y6E0). In words: Residual activity of MST3 at 1 uM by microplate scintillation counting.
In assay [15] the target is T2, Serine/threonine-protein kinase DCLK2 (Homo sapiens) (UniProt Q8N568).
T2 sequence (whole entry): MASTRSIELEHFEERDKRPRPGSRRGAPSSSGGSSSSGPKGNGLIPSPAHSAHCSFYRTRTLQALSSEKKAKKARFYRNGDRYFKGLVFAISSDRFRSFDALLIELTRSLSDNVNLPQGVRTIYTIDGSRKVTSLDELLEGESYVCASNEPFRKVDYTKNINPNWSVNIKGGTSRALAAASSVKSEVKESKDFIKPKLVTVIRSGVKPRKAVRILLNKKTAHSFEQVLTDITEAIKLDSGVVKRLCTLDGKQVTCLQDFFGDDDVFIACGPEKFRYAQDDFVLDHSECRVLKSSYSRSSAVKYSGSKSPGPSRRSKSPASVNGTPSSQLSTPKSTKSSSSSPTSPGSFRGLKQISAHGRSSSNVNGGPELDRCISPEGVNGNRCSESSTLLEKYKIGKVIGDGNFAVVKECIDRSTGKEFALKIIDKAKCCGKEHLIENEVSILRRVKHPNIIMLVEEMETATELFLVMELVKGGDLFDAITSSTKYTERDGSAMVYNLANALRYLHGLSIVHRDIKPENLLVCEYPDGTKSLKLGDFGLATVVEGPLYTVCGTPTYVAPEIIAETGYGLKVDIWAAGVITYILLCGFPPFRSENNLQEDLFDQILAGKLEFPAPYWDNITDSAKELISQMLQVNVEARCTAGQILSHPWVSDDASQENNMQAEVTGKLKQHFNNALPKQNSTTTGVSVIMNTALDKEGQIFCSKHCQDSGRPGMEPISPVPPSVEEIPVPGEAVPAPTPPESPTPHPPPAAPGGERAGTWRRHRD
In words: Residual activity of DCAMKL2 at 10 uM by microplate scintillation counting.

Assay [16] deals with MAP/microtubule affinity-regulating kinase 3 (Homo sapiens) (UniProt P27448). The assay can be described thus: Residual activity of MARK3 at 0.1 uM by microplate scintillation counting.

Calcium/calmodulin-dependent protein kinase type 1D (Homo sapiens), sequence (Q8IU85 whole entry, looked up): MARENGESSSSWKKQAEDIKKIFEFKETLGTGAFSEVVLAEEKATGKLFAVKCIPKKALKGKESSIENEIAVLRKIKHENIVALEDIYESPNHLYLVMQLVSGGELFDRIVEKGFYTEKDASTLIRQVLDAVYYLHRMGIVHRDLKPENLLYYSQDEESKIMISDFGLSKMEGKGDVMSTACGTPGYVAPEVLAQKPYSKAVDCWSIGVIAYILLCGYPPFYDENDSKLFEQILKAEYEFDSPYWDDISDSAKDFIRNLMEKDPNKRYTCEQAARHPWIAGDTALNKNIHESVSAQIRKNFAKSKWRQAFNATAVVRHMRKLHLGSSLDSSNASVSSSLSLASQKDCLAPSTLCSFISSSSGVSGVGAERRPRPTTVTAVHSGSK
Protein kinase C beta type (Homo sapiens), sequence (P05771 2-671 limits assumed): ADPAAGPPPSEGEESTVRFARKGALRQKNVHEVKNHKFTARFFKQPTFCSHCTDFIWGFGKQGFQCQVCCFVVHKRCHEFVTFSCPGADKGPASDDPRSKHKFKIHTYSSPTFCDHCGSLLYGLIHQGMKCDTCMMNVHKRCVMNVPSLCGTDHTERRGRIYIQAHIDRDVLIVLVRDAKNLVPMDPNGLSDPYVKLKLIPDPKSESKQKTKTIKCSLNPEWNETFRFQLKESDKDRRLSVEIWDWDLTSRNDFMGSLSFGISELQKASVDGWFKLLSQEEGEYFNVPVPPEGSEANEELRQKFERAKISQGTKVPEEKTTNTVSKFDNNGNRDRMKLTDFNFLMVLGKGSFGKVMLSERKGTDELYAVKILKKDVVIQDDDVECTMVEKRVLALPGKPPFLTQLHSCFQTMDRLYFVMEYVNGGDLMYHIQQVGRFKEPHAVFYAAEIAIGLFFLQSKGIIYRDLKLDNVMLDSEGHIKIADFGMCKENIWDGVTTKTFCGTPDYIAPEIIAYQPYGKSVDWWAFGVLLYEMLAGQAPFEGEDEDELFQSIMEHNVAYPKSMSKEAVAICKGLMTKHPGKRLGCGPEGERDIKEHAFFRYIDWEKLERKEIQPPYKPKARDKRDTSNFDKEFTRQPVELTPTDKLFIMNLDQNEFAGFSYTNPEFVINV
Protein kinase C theta type (Homo sapiens), sequence (Q04759 whole entry, looked up): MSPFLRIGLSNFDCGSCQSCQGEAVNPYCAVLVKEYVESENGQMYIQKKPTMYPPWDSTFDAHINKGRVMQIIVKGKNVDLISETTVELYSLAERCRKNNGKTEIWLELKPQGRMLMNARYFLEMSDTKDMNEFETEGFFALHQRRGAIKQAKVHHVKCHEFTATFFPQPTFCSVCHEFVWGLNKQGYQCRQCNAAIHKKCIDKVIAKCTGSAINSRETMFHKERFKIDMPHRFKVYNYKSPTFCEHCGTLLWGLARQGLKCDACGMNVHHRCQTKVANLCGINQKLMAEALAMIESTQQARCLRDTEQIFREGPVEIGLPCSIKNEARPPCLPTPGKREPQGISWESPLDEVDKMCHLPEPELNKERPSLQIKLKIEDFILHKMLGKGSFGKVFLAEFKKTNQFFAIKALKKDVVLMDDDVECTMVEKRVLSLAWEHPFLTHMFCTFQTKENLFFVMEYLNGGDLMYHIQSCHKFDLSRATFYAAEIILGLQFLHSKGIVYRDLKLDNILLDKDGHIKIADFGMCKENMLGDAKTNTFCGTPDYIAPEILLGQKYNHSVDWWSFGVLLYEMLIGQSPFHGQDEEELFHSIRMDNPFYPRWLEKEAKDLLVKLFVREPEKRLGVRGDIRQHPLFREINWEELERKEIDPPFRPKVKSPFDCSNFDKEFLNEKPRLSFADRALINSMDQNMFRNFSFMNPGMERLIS
Serine/threonine-protein kinase 24 (Homo sapiens), sequence (Q9Y6E0 whole entry, looked up): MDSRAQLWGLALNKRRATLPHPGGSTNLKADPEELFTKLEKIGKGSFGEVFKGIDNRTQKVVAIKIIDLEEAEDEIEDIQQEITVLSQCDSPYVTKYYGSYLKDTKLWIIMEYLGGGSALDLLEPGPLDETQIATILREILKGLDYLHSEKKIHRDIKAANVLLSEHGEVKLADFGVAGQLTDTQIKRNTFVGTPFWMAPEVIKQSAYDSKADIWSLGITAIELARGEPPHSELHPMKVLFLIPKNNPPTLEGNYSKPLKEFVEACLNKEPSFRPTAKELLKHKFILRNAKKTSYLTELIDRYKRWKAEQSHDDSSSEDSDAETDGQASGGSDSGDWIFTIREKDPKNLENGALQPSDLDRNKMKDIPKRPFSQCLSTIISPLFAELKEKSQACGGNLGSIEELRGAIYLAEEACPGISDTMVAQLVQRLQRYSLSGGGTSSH

As for `COc1cc2c(Oc3ccc(-c4nc5ccccc5s4)cc3)ncnc2cc1OCCCN1CCCC1`, the residual activity in assay [1] was determined as 92%; in assay [2], 49%; in assay [3] it was 53%; in assay [4] it was 111%; in assay [5], 88%; in assay [6] it was 111%. Further, the residual activity came to 74% in assay [7]; 101% in assay [8]; 100% in assay [9]; 96% in [10]; 101% in assay [11]; 87% in [12]. Also, the residual activity was 142% in assay [13], 113% in assay [14], 97% in [15] and 84% in assay [16].
Take `COc1cc2c(Oc3ccc(-c4nc5ccccc5s4)cc3F)ncnc2cc1OCCCN1CCN(C)CC1`: the residual activity in assay [1] was 102%; in assay [2], 48%; in assay [3], 6%; in assay [4] it was 100%; in assay [5] it was 88%; in assay [6], 132%. For the same molecule, the residual activity in assay [7] is 97%; in [8], 104%; in assay [9], 87%; in [10], 96%; in assay [11] it was 14%; in assay [12] it was 88%. In addition, the residual activity in assay [13] stood at 36%; in [14], 122%; in assay [15] it was 115%; in [16] it was 87%.
Turning to `COc1cc2c(Oc3ccc(-c4nc5ccccc5s4)cc3)ncnc2cc1OCCCN1CCN(C)CC1`, the residual activity in assay [1] was 90%; in [2], 54%; in [3], 40%; in assay [4], 113%; in [5], 79%; in assay [6] it was 104%. Further, the residual activity was 124% in assay [7]; 88% in [8]; 113% in assay [9]; 100% in [10]; 55% in assay [11]; 83% in assay [12]. In addition, the residual activity in assay [13] turned out to be 112%; in assay [14] it was 118%; in assay [15] it was 93%; in assay [16], 92%.
